Target: T1, full length human recombinant glucocorticoid receptor (Homo sapiens, UniProt P04150)
T1 construct: It contains some partially purified full length human recombinant glucocorticoid receptor; purchased Panvera/Invitrogen PV4302
T1 sequence (P04150 1-777): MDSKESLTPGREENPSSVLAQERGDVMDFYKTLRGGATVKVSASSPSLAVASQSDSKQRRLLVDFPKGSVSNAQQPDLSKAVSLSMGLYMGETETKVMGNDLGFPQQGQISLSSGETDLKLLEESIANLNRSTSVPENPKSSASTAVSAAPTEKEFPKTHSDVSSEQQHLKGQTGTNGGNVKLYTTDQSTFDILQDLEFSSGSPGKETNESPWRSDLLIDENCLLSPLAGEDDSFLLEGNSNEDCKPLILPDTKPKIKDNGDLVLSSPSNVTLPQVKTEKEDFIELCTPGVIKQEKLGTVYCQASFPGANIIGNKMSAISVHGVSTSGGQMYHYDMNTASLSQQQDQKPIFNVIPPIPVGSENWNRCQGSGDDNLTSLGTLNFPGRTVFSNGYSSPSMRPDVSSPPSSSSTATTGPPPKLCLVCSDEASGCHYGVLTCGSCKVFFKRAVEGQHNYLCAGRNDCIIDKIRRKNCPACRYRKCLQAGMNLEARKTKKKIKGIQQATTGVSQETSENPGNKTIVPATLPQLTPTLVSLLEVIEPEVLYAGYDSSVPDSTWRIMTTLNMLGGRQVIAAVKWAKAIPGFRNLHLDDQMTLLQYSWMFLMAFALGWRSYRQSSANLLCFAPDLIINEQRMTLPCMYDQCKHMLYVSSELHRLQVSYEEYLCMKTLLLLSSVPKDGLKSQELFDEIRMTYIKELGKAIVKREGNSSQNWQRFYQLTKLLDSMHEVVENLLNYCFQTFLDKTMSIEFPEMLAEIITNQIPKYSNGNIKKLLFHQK
Test: Glucocorticoid Receptor Binding Assay (Glucocorticoid Receptor Competitor Assay far red kit, fluorescence polarization)
Details: competition with fluorescent GR ligand Fluormone GS Far Red, 3 hours at 22° C., pH 7.4; Ki calculated from IC50 by Cheng-Prusoff
How it was run: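 Fluorescence polarization competition with partially purified full-length human recombinant GR, stabilizing peptide and Fluormone GS Far Red tracer in screening buffer pH 7.4; 3 hours at 22° C in the dark, read at 610–660 nm. IC50 from sigmoidal fit; Ki by Cheng-Prusoff.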

Ki [nM] | Structure (SMILES)
5.4 | COC(=O)c1ccc(Oc2ccc(Cl)c([C@H](C)[C@](O)(c3ccc4c(c3)N(C)C(=O)CO4)C(F)(F)F)c2)cc1F (relative stereo) [Example 13, 4-{4-Chloro-3-[3,3,3-trifluoro-2-hydroxy-1-methyl-2-(4-methyl-3-oxo-3,4-dihydro-2H-benzo[1,4]oxazin-6-yl)-propyl]-phenoxy}-2-fluoro-benzoic acid methyl ester]
1.6 | C[C@H](c1ccc(Br)cc1Cl)[C@@](O)(c1ccc2c(c1)oc(=O)n2C)C(F)(F)F (relative stereo) [Example 133, 6-[2-(4-Bromo-2-chloro-phenyl)-1-hydroxy-1-trifluoromethyl-propyl]-3-methyl-3H-benzooxazol-2-one]
2.5 | Cc1cc([C@@](O)([C@@H](C)c2ccc(Oc3ccc(C(=O)O)c(Cl)c3)cc2Cl)C(F)(F)F)cc(C)c1C#N (relative stereo) [Example 144, 2-Chloro-4-{3-chloro-4-[2-(4-cyano-3,5-dimethyl-phenyl)-3,3,3-trifluoro-2-hydroxy-1-methyl-propyl]-phenoxy}-benzoic acid]
114 | C[C@H](c1ccc(-c2ccc(F)c(C(=O)O)c2)cc1Cl)[C@@](O)(c1ccc2c(c1)oc(=O)n2C)C(F)(F)F (relative stereo) [Example 178, 3′-Chloro-4-fluoro-4′-[3,3,3-trifluoro-2-hydroxy-1-methyl-2-(3-methyl-2-oxo-2,3-dihydro-benzooxazol-6-yl)-propyl]-biphenyl-3-carboxylic acid]
28.2 | C[C@H](c1ccc(Oc2ccc(C(=O)O)cn2)cc1Cl)[C@@](O)(c1ccc2c(c1)OCC(=O)N2C)C(F)(F)F (relative stereo) [Example 169, 6-{3-Chloro-4-[3,3,3-trifluoro-2-hydroxy-1-methyl-2-(4-methyl-3-oxo-3,4-dihydro-2H-benzo[1,4]oxazin-7-yl)-propyl]-phenoxy}-nicotinic acid]
1.7 | C[C@H](c1ccc(Oc2ncc(C(=O)O)cc2Cl)cc1Cl)[C@@](O)(c1ccc2c(c1)N(C)C(=O)CO2)C(F)(F)F (racemic) [Example 213, 5-Chloro-6-{3-chloro-4-[3,3,3-trifluoro-2-hydroxy-1-methyl-2-(4-methyl-3-oxo-3,4-dihydro-2H-benzo[1,4]oxazin-6-yl)-propyl]-phenoxy}-nicotinic acid]
3.1 | C[C@@H](c1ccc(-c2ccc(C(=O)O)c(Cl)c2)cc1Cl)[C@](O)(c1ccc2c(c1)N(C)C(=O)CO2)C(F)(F)F (relative stereo) [Example 31, 3,3′-Dichloro-4′-[3,3,3-trifluoro-2-hydroxy-1-methyl-2-(4-methyl-3-oxo-3,4-dihydro-2H-benzo[1,4]oxazin-6-yl)-propyl]-biphenyl-4-carboxylic acid]
5.3 | C[C@H](c1ccc(Oc2ccc(C(=O)O)nc2)cc1Cl)[C@@](O)(c1ccc2c(c1)n(C)c(=O)n2C)C(F)(F)F (stereo in doubt) [Example 95, 5-{3-Chloro-4-[2-(1,3-dimethyl-2-oxo-2,3-dihydro-1H-benzoimidazol-5-yl)-3,3,3-trifluoro-2-hydroxy-1-methyl-propyl]-phenoxy}-pyridine-2-carboxylic acid]
1.6 | C[C@H](c1ccc(Oc2ccc(C(=O)O)cc2)cc1Cl)[C@@](O)(c1ccc2c(c1)n(C)c(=O)n2C)C(F)(F)F (relative stereo) [Example 98, 4-{3-Chloro-4-[2-(1,3-dimethyl-2-oxo-2,3-dihydro-1H-benzoimidazol-5-yl)-3,3,3-trifluoro-2-hydroxy-1-methyl-propyl]-phenoxy}-benzoic acid]
1 | COC(=O)c1cnc(Oc2ccc([C@@H](C)[C@@](O)(c3ccc4c(c3)N(C)C(=O)CO4)C(F)(F)F)c(Cl)c2)c(Cl)c1 (racemic) [Example 212, 5-Chloro-6-{3-chloro-4-[3,3,3-trifluoro-2-hydroxy-1-methyl-2-(4-methyl-3-oxo-3,4-dihydro-2H-benzo[1,4]oxazin-6-yl)-propyl]-phenoxy}-nicotinic acid methyl ester]
278 | C=CCN1C(=O)COc2ccc([C@](O)([C@H](C)c3ccc(-c4ccc(C(=O)OC)c(F)c4)cc3Cl)C(F)(F)F)cc21 (stereo in doubt) [Example 70, 4′-[2-(4-Allyl-3-oxo-3,4-dihydro-2H-benzo[1,4]oxazin-6-yl)-3,3,3-trifluoro-2-hydroxy-1-methyl-propyl]-3′-chloro-3-fluoro-biphenyl-4-carboxylic acid methyl ester]
1.4 | C[C@H](c1ccc(Oc2ccc(C(=O)O)c(C(F)(F)F)n2)cc1Cl)[C@@](O)(c1ccc2c(c1)N(C)C(=O)CO2)C(F)(F)F (stereo in doubt) [Example 215, 6-{3-Chloro-4-[3,3,3-trifluoro-2-hydroxy-1-methyl-2-(4-methyl-3-oxo-3,4-dihydro-2H-benzo[1,4]oxazin-6-yl)-propyl]-phenoxy}-2-trifluoromethyl-nicotinic acid]
0.8 | C[C@H](c1ccc(Oc2ccc(C(=O)O)c(Cl)n2)cc1Cl)[C@@](O)(c1ccc2c(c1)N(C)C(=O)CO2)C(F)(F)F (stereo in doubt) [Example 209, 2-Chloro-6-{3-chloro-4-[3,3,3-trifluoro-2-hydroxy-1-methyl-2-(4-methyl-3-oxo-3,4-dihydro-2H-benzo[1,4]oxazin-6-yl)-propyl]-phenoxy}-nicotinic acid]
1.7 | C[C@H](c1ccc(-c2ccc(F)c(C(=O)O)c2)cc1Cl)[C@@](O)(c1ccc2c(c1)n(C)c(=O)n2C)C(F)(F)F (stereo in doubt) [Example 74, 3′-Chloro-4′-[2-(1,3-dimethyl-2-oxo-2,3-dihydro-1H-benzoimidazol-5-yl)-3,3,3-trifluoro-2-hydroxy-1-methyl-propyl]-4-fluoro-biphenyl-3-carboxylic acid]
2.1 | C[C@H](c1ccc(Oc2cc(C(F)(F)F)c(C(=O)O)cn2)cc1Cl)[C@@](O)(c1ccc2c(c1)N(C)C(=O)CO2)C(F)(F)F [Example 62]
3.1 | COC(=O)c1cnc(Oc2ccc([C@H](C)[C@](O)(c3cc(C)c(C#N)c(C)c3)C(F)(F)F)c(Cl)c2)cc1C(F)(F)F (stereo in doubt) [Example 145, 6-{3-Chloro-4-[2-(4-cyano-3,5-dimethyl-phenyl)-3,3,3-trifluoro-2-hydroxy-1-methyl-propyl]phenoxy}-4-trifluoromethyl-nicotinic acid methyl ester]
1.4 | C[C@H](c1ccc(-c2cncc(C(=O)O)c2)cc1Cl)[C@@](O)(c1ccc2oc(=O)n(C)c2c1)C(F)(F)F (relative stereo) [Example 191, 5-{3-Chloro-4-[3,3,3-trifluoro-2-hydroxy-1-methyl-2-(3-methyl-2-oxo-2,3-dihydro-benzooxazol-5-yl)-propyl]-phenyl}-nicotinic acid]
214 | COC(=O)CC1CCN(C(=O)c2ccc(Cl)c([C@H](C)[C@](O)(c3ccc4c(c3)N(C)C(=O)CO4)C(F)(F)F)c2)CC1 (relative stereo) [Example 19, (1-{4-Chloro-3-[3,3,3-trifluoro-2-hydroxy-1-methyl-2-(4-methyl-3-oxo-3,4-dihydro-2H-benzo[1,4]oxazin-6-yl)-propyl]-benzoyl}-piperidin-4-yl)-acetic acid methyl ester]

From patent publication US8450313B2, “2,3-diaryl- or heteroaryl-substituted 1,1,1-trifluoro-2-hydroxypropyl compounds” (Hoffmann-La Roche Inc., priority 2009, dated 2013)
